ChEMBL document CHEMBL4184249, “Structural development of tetrachlorophthalimides as liver X receptor β (LXRβ)-selective agonists with improved aqueous solubility” (Bioorg Med Chem Lett, 2018)
The source made the active and inactive calls. No cut-off for these calls is given here.

Assays:
[1] = target: T1, Oxysterols receptor LXR-beta (Mus musculus, UniProt Q60644); test: Agonist activity at mouse LXRbeta expressed in HEK293 cells co-expressing CMX-beta-galactosidase incubated for 16 hrs by luciferase reporter gene assay; assay type: cell-based
T1 sequence (Q60644 whole entry): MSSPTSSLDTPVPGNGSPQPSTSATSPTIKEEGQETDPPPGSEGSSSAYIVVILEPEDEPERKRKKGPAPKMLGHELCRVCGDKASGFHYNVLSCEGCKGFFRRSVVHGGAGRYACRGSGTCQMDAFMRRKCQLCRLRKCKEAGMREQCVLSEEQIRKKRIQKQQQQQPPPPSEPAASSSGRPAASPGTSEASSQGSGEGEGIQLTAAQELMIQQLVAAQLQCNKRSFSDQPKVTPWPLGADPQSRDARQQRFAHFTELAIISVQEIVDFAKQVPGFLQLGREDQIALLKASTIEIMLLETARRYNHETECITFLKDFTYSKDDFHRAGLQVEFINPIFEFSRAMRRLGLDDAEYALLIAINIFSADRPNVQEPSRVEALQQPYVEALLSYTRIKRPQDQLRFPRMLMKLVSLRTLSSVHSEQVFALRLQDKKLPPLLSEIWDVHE

[2] = target: T2, Retinoic acid receptor alpha (Homo sapiens) (UniProt P10276); test: Agonist activity at GAL4-tagged RARalpha (unknown origin) expressed in HEK293 cells co-expressing CMX-beta-galactosidase at 0.3 to 30 uM incubated for 16 hrs by luciferase reporter gene assay; assay type: cell-based
T2 sequence (whole entry): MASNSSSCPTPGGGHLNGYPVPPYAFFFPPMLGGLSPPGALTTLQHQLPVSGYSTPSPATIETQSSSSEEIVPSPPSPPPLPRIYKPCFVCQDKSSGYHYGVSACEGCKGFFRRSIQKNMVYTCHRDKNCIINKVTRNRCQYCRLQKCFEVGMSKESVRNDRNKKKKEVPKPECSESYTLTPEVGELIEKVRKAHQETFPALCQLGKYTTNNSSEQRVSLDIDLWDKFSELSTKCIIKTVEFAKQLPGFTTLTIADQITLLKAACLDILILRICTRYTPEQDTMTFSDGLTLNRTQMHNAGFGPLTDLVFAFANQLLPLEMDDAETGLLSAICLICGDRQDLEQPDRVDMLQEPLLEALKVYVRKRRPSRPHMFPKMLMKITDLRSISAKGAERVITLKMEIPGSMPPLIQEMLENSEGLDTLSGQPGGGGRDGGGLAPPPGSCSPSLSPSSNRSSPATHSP

[3] = target: T3, Retinoic acid receptor beta (Homo sapiens) (UniProt P10826); test: Agonist activity at GAL4-tagged RARbeta (unknown origin) expressed in HEK293 cells co-expressing CMX-beta-galactosidase at 0.3 to 30 uM incubated for 16 hrs by luciferase reporter gene assay; assay type: cell-based
T3 sequence (whole entry): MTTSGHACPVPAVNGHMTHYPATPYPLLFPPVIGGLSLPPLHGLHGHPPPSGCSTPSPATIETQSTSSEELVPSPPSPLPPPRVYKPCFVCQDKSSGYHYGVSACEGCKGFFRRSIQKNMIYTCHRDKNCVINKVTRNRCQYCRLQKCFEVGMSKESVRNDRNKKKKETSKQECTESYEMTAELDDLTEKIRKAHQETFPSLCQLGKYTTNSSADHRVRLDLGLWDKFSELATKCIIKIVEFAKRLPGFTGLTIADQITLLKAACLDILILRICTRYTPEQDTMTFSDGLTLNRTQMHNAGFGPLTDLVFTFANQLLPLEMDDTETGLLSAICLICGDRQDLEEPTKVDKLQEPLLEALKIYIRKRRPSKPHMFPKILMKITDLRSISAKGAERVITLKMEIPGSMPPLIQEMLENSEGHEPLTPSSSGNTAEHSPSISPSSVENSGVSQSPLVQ

[4] = target: T4, Retinoic acid receptor RXR-alpha (Homo sapiens) (UniProt P19793); test: Agonist activity at GAL4-tagged RXRalpha (unknown origin) expressed in HEK293 cells co-expressing CMX-beta-galactosidase at 0.3 to 30 uM incubated for 16 hrs by luciferase reporter gene assay; assay type: cell-based
T4 sequence (whole entry): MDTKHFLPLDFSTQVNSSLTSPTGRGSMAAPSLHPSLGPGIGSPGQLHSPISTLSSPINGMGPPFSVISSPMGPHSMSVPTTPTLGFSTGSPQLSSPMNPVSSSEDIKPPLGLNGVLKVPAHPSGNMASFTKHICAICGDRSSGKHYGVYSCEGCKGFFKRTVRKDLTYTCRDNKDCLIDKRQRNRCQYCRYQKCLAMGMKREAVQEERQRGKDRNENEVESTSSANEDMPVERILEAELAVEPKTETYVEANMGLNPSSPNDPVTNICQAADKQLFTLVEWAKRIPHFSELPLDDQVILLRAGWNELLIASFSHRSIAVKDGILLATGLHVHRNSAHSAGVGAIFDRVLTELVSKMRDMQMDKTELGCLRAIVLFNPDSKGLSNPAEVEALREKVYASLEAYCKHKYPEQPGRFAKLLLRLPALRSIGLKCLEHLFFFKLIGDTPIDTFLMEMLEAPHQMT

[5] = target: T5, Retinoic acid receptor RXR-beta (Homo sapiens) (UniProt P28702); test: Agonist activity at GAL4-tagged RXRbeta (unknown origin) expressed in HEK293 cells co-expressing CMX-beta-galactosidase at 0.3 to 30 uM incubated for 16 hrs by luciferase reporter gene assay; assay type: cell-based
T5 sequence (whole entry): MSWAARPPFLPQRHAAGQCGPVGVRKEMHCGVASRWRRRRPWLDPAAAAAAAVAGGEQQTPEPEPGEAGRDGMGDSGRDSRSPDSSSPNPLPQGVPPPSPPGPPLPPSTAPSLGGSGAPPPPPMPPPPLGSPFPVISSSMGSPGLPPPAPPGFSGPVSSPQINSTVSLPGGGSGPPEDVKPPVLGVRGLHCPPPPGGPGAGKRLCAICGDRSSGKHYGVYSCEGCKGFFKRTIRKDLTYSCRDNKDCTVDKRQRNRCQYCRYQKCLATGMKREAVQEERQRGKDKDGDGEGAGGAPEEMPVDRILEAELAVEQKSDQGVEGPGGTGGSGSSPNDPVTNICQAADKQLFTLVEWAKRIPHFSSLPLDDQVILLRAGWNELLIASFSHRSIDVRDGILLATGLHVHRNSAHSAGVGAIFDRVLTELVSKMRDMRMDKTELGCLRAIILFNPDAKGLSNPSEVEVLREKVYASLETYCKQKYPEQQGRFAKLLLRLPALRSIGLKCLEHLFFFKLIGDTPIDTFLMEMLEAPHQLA

[6] = target: T6, Oxysterols receptor LXR-beta (Homo sapiens, UniProt P55055); test: Agonist activity at LXRbeta ligand-binding domain (unknown origin) incubated for 1.5 hrs using fluorescein-labeled coactivator peptide by TR-FRET competitive binding assay
[7] = target: T6, Oxysterols receptor LXR-beta; test: Agonist activity at LXRbeta ligand-binding domain (unknown origin) at 3 uM incubated for 1.5 hrs using fluorescein-labeled coactivator peptide by TR-FRET competitive binding assay relative to T0901317

T6 sequence (P55055 whole entry, looked up, the tested form may be a part): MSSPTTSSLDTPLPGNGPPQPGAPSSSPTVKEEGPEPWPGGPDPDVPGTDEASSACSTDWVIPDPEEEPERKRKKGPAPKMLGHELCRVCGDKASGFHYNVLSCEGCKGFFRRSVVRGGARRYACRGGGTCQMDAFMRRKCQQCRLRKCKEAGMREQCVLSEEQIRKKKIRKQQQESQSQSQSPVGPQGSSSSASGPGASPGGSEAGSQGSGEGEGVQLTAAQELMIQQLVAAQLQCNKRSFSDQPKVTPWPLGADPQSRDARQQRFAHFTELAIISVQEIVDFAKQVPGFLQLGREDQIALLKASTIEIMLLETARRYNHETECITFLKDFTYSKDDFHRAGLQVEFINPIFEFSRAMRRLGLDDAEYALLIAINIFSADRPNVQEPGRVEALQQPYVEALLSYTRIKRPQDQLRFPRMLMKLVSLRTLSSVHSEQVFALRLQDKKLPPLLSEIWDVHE

O=C1c2c(Cl)c(Cl)c(Cl)c(Cl)c2C(=O)N1c1ccccc1/C=C/c1cccs1
EC50 [1]: 0.79 µM
Efficacy [2]: 6%
Activity [3]: inactive
Activity [4]: inactive
Activity [5]: inactive
Activity [6]: Dose-dependent effect
Efficacy [7]: 14%
